According to US20230257372A1 (CHONG KUN DANG PHARMACEUTICAL CORP., priority 2020, published 2023):
pIC50: −log10 of the molar value. Like-named read-outs stand apart in the source and are kept apart here.

Experiments:
[1] = target: T1, human recombinant HDAC1 (Homo sapiens, UniProt Q13547); assay: HDAC1 enzyme activity inhibition (HDAC Fluorimetric Drug Discovery Kit); type: biochemical; conditions: read-out: HDAC1
T1 construct: purchased Enzo Life Science, Inc. BML-SE456
Summary of the method: (§1)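 Fluorimetric deacetylase read-out. 5-fold compound dilutions; […] enzyme, 10 μM substrate; 30° C, 60 min; developer 30 min.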

[2] = target: T2, human recombinant HDAC6 (Homo sapiens, UniProt Q9UBN7); assay: HDAC6 enzyme activity inhibition (HDAC Fluorimetric Drug Discovery Kit); type: biochemical
T2 construct: purchased Calbiochem Inc. 382180
T2 sequence (Q9UBN7 1-1215): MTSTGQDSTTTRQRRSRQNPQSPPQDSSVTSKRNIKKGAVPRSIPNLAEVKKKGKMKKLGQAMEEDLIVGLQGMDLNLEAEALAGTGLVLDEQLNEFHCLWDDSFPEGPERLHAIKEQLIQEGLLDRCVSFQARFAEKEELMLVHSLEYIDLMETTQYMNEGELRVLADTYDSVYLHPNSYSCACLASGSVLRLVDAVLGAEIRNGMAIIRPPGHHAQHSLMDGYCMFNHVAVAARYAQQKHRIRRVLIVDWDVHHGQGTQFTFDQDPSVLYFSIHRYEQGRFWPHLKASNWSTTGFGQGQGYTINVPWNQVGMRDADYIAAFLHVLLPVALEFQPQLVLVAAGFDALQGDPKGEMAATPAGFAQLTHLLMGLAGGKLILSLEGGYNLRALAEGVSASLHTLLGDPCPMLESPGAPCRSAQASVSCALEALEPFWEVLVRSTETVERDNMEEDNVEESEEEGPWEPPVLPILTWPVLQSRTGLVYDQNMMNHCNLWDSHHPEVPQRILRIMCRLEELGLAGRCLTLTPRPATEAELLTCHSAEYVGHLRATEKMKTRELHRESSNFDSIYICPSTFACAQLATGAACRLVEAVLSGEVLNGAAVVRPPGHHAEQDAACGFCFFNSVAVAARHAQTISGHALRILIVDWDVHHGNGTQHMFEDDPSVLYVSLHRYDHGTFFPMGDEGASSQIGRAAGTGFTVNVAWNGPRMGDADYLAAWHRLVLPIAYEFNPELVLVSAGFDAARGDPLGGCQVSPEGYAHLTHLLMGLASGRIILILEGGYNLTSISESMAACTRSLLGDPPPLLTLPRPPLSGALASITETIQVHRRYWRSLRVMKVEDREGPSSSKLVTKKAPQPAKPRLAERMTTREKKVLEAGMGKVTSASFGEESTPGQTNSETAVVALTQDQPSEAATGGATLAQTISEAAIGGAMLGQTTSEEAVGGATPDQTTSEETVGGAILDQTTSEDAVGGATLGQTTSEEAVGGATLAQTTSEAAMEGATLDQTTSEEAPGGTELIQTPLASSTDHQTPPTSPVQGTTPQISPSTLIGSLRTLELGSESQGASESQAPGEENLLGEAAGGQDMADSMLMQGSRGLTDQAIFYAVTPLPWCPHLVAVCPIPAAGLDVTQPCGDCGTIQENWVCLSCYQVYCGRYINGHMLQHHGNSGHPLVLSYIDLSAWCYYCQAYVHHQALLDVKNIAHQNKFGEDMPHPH
Summary of the method: as §1

[3] = human recombinant HDAC1, Fluor de Lys substrate, 30° C. 60 minutes
[4] = human recombinant HDAC6, same protocol as HDAC1
[5] = human recombinant HDAC1, IC50 calculated with GraphPad Prism
[6] = human recombinant HDAC6, IC50 calculated with GraphPad Prism

T1 sequence (Q13547 whole entry): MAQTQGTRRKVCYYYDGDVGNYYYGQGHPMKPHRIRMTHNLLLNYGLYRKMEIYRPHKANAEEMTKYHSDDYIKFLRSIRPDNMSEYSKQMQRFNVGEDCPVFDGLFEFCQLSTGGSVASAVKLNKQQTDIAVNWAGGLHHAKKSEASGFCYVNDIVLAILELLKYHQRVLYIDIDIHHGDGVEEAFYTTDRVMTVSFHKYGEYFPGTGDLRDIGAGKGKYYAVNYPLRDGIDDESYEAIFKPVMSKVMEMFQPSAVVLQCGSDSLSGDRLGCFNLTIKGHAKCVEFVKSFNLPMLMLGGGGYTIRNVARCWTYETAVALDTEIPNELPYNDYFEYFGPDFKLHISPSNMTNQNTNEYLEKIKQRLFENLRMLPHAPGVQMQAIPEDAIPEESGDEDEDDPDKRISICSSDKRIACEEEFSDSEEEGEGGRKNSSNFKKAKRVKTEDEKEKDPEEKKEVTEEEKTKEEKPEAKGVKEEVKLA

Row | pIC50 [1, 3] | HDAC6 selectivity (fold) ([2]; HDAC6 over HDAC1) | pIC50 [2, 4] | pIC50 [1, 5] | HDAC6 selectivity (fold) ([2]; HDAC1 IC50 / HDAC6 IC50) | pIC50 [2, 6] | SMILES
1 | < 4.30 | 510 fold | 7.01 |  |  |  | CN(C)Cc1ccc(-c2cn(Cc3ncc(-c4nnc(C(F)F)o4)cc3F)nn2)cc1Cl [Compound 19094, 1-(2-chloro-4-(1-((5-(5-(difluoromethyl)-1,3,4-oxadiazol-2-yl)-3-fluoropyridin-2-yl)methyl)-1H-1,2,3-triazol-4-yl)phenyl)-N,N-dimethylmethanamine]
2 | < 4.30 | 976 fold | 7.29 |  |  |  | Fc1cc(-c2nnc(C(F)F)o2)ccc1Cn1cc(-c2cccc(N3CCN(C4CCC4)CC3)n2)nn1 [Compound 17364, 2-(4-((4-(6-(4-cyclobutylpiperazin-1-yl)pyridin-2-yl)-1H-1,2,3-triazol-1-yl)methyl)-3-fluorophenyl)-5-(difluoromethyl)-1,3,4-oxadiazole]
3 | < 4.30 | 685 fold | 7.14 |  |  |  | Fc1cc(-c2nnc(C(F)F)o2)ccc1Cn1cc(-c2ccc(CN3CCCC3)c(Cl)c2)nn1 [Compound 18713, 2-(4-((4-(3-chloro-4-(pyrrolidin-1-ylmethyl)phenyl)-1H-1,2,3-triazol-1-yl)methyl)-3-fluorophenyl)-5-(difluoromethyl)-1,3,4-oxadiazole]
4 |  |  |  | < 4.30 | 386 fold | 6.89 | CC(C)(C)OC(=O)N1CCCC(c2cn(Cc3ccc(-c4nnc(C(F)F)o4)cn3)nn2)C1 (stereo not drawn) [Compound 3961, Tert-butyl 3-(1-((5-(5-(difluoromethyl)-1,3,4-oxadiazol-2-yl)pyridin-2-yl)methyl)-1H-1,2,3-triazol-4-yl)piperidin-1-carboxylate]
5 | < 4.30 | 371 fold | 6.87 |  |  |  | CN1CC(c2cccc(-c3cn(Cc4ccc(-c5nnc(C(F)F)o5)cc4)nn3)c2)C1 [Compound 4528, 2-(difluoromethyl)-5-(4-((4-(3-(1-methylazetidin-3-yl)phenyl)-1H-1,2,3-triazol-1-yl)methyl)phenyl)-1,3,4-oxadiazole]
6 | < 4.30 | 2512 fold | 7.70 |  |  |  | Fc1cc(-c2nnc(C(F)F)o2)ccc1Cn1cc(-c2ccc(CN3CC[C@@H](F)C3)cc2)nn1 [Compound 4607, (R)-2-(difluoromethyl)-5-(3-fluoro-4-((4-(4-((3-fluoropyrrolidin-1-yl)methyl)phenyl)-1H-1,2,3-triazol-1-yl)methyl)phenyl)-1,3,4-oxadiazole]
7 | < 4.30 | 759 fold | 7.18 |  |  |  | CN(C)Cc1ccc(-c2cn(Cc3ncc(-c4nnc(C(F)F)o4)cc3F)nn2)cc1F [Compound 18949, 1-(4-(1-((5-(5-(difluoromethyl)-1,3,4-oxadiazol-2-yl)-3-fluoropyridin-2-yl)methyl)-1H-1,2,3-triazol-4-yl)-2-fluorophenyl)-N,N-dimethylmethanamine]
8 |  |  |  | < 4.30 | 672 fold | 7.13 | Fc1ccnc(-c2cn(Cc3ccc(-c4nnc(C(F)F)o4)cn3)nn2)c1 [Compound 4179, 2-(difluoromethyl)-5-(6-((4-(4-fluoropyridin-2-yl)-1H-1,2,3-triazol-1-yl)methyl)pyridin-3-yl)-1,3,4-oxadiazole]
9 | < 4.30 | 675 fold | 7.13 |  |  |  | Fc1cc(-c2nnc(C(F)F)o2)cnc1Cn1cc(-c2cccc(C3CCN(C4COC4)CC3)c2)nn1 [Compound 18871, 2-(difluoromethyl)-5-(5-fluoro-6-((4-(3-(1-(oxetan-3-yl)piperidin-4-yl)phenyl)-1H-1,2,3-triazol-1-yl)methyl)pyridin-3-yl)-1,3,4-oxadiazole]
10 |  |  |  | < 4.30 | 1400 fold | 7.45 | Cc1ccncc1-c1cn(Cc2ccc(-c3nnc(C(F)F)o3)cn2)nn1 [Compound 4181, 2-(difluoromethyl)-5-(6-((4-(4-methylpyridin-3-yl)-1H-1,2,3-triazol-1-yl)methyl)pyridin-3-yl)-1,3,4-oxadiazole]
11 | < 4.30 | 2347 fold | 7.67 |  |  |  | FC1CN(Cc2ccc(-c3cn(Cc4ccc(-c5nnc(C(F)F)o5)cn4)nn3)cc2)C1 [Compound 4559, 2-(difluoromethyl)-5-(6-((4-(4-((3-fluoroazetidin-1-yl)methyl)phenyl)-1H-1,2,3-triazol-1-yl)methyl)pyridin-3-yl)-1,3,4-oxadiazole]
12 |  |  |  | < 4.30 | 212 fold | 6.63 | OC1(c2cn(Cc3ccc(-c4nnc(C(F)F)o4)cn3)nn2)CCOC1 (stereo not drawn) [Compound 4277, 3-(1-((5-(5-(difluoromethyl)-1,3,4-oxadiazol-2-yl)pyridin-2-yl)methyl)-1H-1,2,3-triazol-4-yl)tetrahydrofuran-3-ol]
13 |  |  |  | < 4.30 | 889 fold | 7.25 | FC(F)c1nnc(-c2ccc(Cn3cc(-c4cccc(NC5COC5)c4)nn3)cc2)o1 [Compound 4326, N-(3-(1-(4-(5-(difluoromethyl)-1,3,4-oxadiazol-2-yl)benzyl)-1H-1,2,3-triazol-4-yl)phenyl)oxetan-3-amine]
14 | < 4.30 | 775 fold | 7.19 |  |  |  | Fc1cc(-c2nnc(C(F)F)o2)ccc1Cn1cc(-c2ccc(CN3CC[C@@H](F)C3)cn2)nn1 [Compound 18260, (R)-2-(difluoromethyl)-5-(3-fluoro-4-((4-(5-((3-fluoropyrrolidin-1-yl)methyl)pyridin-2-yl)-1H-1,2,3-triazol-1-yl)methyl)phenyl)-1,3,4-oxadiazole]
15 |  |  |  | < 4.30 | 166 fold | 6.52 | CCN1CCC(c2cn(Cc3ccc(-c4nnc(C(F)F)o4)cn3)nn2)CC1 [Compound 3807, 2-(difluoromethyl)-5-(6-((4-(1-ethylpiperidin-4-yl)-1H-1,2,3-triazol-1-yl)methyl)pyridin-3-yl)-1,3,4-oxadiazole]
16 |  |  |  | < 4.30 | 81 fold | 6.21 | CCN1CC(c2cn(Cc3ccc(-c4nnc(C(F)F)o4)cn3)nn2)C1 [Compound 3951, 2-(difluoromethyl)-5-(6-((4-(1-ethylazetidin-3-yl)-1H-1,2,3-triazol-1-yl)methyl)pyridin-3-yl)-1,3,4-oxadiazole]
17 |  |  |  | < 4.30 | 478 fold | 6.98 | FC(F)c1nnc(-c2ccc(Cn3cc(-c4cccc5cc[nH]c45)nn3)cc2)o1 [Compound 4081, 2-(4-((4-(1H-indol-7-yl)-1H-1,2,3-triazol-1-yl)methyl)phenyl)-5-(difluoromethyl)-1,3,4-oxadiazole]
18 |  |  |  | < 4.30 | 1253 fold | 7.40 | CN1CCN(Cc2ccc(-c3cn(Cc4ccc(-c5nnc(C(F)F)o5)cc4F)nn3)cc2)CC1 [Compound 4473, 2-(difluoromethyl)-5-(3-fluoro-4-((4-(4-((4-methylpiperazin-1-yl)methyl)phenyl)-1H-1,2,3-triazol-1-yl)methyl)phenyl)-1,3,4-oxadiazole]
19 | < 4.30 | 2762 fold | 7.74 |  |  |  | FC(F)c1nnc(-c2ccc(Cn3cc(-c4ccc(CN5CCCC5)cc4)nn3)cc2)o1 [Compound 4550, 2-(difluoromethyl)-5-(4-((4-(4-(pyrrolidin-1-ylmethyl)phenyl)-1H-1,2,3-triazol-1-yl)methyl)phenyl)-1,3,4-oxadiazole]
20 |  |  |  | < 4.30 | 287 fold | 6.76 | COC(=O)N1CCC(c2cn(Cc3ccc(-c4nnc(C(F)F)o4)cn3)nn2)CC1 [Compound 3891, Methyl4-(1-((5-(5-(difluoromethyl)-1,3,4-oxadiazol-2-yl)pyridin-2-yl)methyl)-1H-1,2,3-triazol-4-yl)piperidin-1-carboxylate]
